Measured values: patent US20030206968A1, “Fungicidal mixtures” (priority 1999, published 2003)

Columns and labels:
Type in all cases: in vivo
Rhynchosporium secalis = assay: Greenhouse, Rhynchosporium secalis on barley, 1 day residual; details: Example 8; dose rate 100 ppm
Protocol: (§1) The trials are carried out under greenhouse (Examples 1 to 32) or field conditions (Examples 33 to 40) in residual or curative applications. The fungicides are applied in single treatments, or in a combination comprising an azolopyrimidine of formula I and a compound selected from the classes (A), (B) and (C) as defined above. The compounds are applied in form of an aqueous spray mix obtained from a concentrated formulation or the technical material.
(§2) 1. Seed is planted in 6 cm diameter plastic pots and maintained in the greenhouse.
2. When the primary leaf is fully expanded in the case of cereals or several leaves are present in the case of dicots, formulated test compounds are sprayed with a three nozzle overhead fungicide sprayer to near run-off. […]
4. Disease on the foliage as percent leaf area with disease symptoms/signs is evaluated about 7 days after inoculation. […]
(§3) Assessments of the diseases took place at the indicated day after the application of the compounds. Per cent infected leaf area infected was evaluated. The efficacy of the compounds/compounds mixtures to control the diseases was calculated by using the formula given above under item 4: […]
Synergy was calculated using the % disease control values of specific treatments for the two COLBY formula given hereinabove […]

Septoria tritici [1] = assay: Greenhouse, Septoria tritici on wheat, 1 day residual; details: Example 9
Protocol: as §1, §2
(§4) 2. When the primary leaf is fully expanded in the case of cereals or several leaves are present in the case of dicots, formulated test compounds are sprayed with a three nozzle overhead fungicide sprayer to near run-off. Alternatively, a single nozzle overhead track sprayer is used for application of the compounds to cereals at a rate of 200 l/ha. Plants are then allowed to air-dry.
(§5) 3. Inoculation precedes treatment in the case of curative evaluations and follows treatment in case of residual evaluations. For inoculation of powdery mildew disease, plants are set up on greenhouse benches with bottom watering mats and inoculated by dusting them with conidia from infected plants. Between inoculation and treatment for curative evaluations and between treatment and inoculation for residual evaluations, plants are maintained in the greenhouse with bottom watering.
(§6) For inoculation of non-powdery mildew diseases, an aqueous spore suspension of the pathogen is applied to the plant and the plants are kept 1-2 days in a moist infection chamber before being returned to the greenhouse where they are maintained by bottom watering.
(§7) 4. Disease on the foliage as percent leaf area with disease symptoms/signs is evaluated about 7 days after inoculation. In the case of wheat, the tips and bases of the leaves are excluded from the evaluation. [formula]
(§8) 1. Technical compounds are formulated in a solvent/surfactant system consisting of 5% acetone and 0.05% Tween 20 in deionized water. Compounds are dissolved in acetone prior to addition of the water; the Tween 20 can be added through either the acetone or the water. Dilutions are made using the solvent/surfactant system. Formulated compounds are prepared using deionized water.
(§9) 2. Two kinds of controls are included: Plants treated with the solvent/surfactant solution and inoculated (Solvent Blank). Untreated plants which are inoculated (Inoculated Control).
as §3
(§10) Synergy was calculated using the % disease control values of specific treatments for the two COLBY formula given hereinabove
Fungicidal efficacy of the mixture of Azolopyrimidine C+metconazole (1 day residual) against Septoria tritici on wheat The tank mix was obtained from a SC formulation containing 100 g Azoplopyrimidine C per liter and an EC containing 100 g metconazole per liter.

Pyrenophora teres = assay: Greenhouse, Pyrenophora teres on barley, 1 day residual; details: Example 10
Protocol: as §1, §2, §4, §5, §6, §7, §8, §9, §3, §10
Fungicidal efficacy of the mixture of Azolopyrimidine C+metconazole (1 day residual) against Pyrenophora teres on barley The tank mix was obtained from a SC formulation containing 100 g Azolopyrimidine C per liter and an EC containing 100 g metconazole per liter.

Puccinia recondita [2] = assay: Greenhouse, Puccinia recondita on wheat, 1 day residual; details: Puccinia recondita, Example 11, read-out: Observed Efficacy
From the text: The fungicides are applied in single treatments, or in a combination comprising an azolopyrimidine of formula I and a compound selected from the classes (A), (B) and (C) as defined above. The compounds are applied in form of an aqueous spray mix obtained from a concentrated formulation or the technical material.
as §2, §4, §5, §6, §7, §8, §9, §3, §10
Fungicidal efficacy of the mixture of Azolopyrimidine C+metconazole (1 day residual) against Puccinia recondita on wheat The tank mix was obtained from a SC formulation containing 100 g Azolopyrimidine C per liter and an EC containing 100 g metconazole per liter. […]
Fungicidal efficacy of the mixture of Azolopyrimidine C+fluazinam (1 day residual) against Puccinia recondita on wheat The tank mix was obtained from technical material of Azolopyrimidine C and a SC formulation containing 500 g fluazinam per liter. […]

Septoria tritici [3] = assay: Field test, Septoria tritici on wheat
Protocol: as §1
(§11) For the field study formulated Azolopyrimidine A, B or C and formulated compounds from the classes (A), (B) and (C) were used.
as §3, §10
(§12) The compounds are applied according to good agricultural practice in the form of an aqueous spray mix obtained from a concentrated formulation or the technical material at a rate of 400 l/ha. The disease control is evaluated according to the formula given for the greenhouse tests.
Fungicidal efficacy of the mixture of Azolopyrimidine C+metconazole in the field against Septoria tritici on wheat The tank mix was obtained from an EC formulation containing 150 g Azolopyrimidine C per liter and a SL formulation containing 60 g metconazole per liter. The observed and expected efficacies with different rates are given in Table XXXIVa (19 days after application) and Table XXXIVb (25 days after application):
Fungicidal efficacy of the mixture of (S)-Azolopyrimidine C+kresoxim methyl in the field against Septoria tritici on wheat The tank mix was obtained from a SC formulation containing 100 g (S)-Azolopyrimidine C per liter and a WG formulation containing 500 g kresoxim methyl per kg. The observed and expected efficacies with different rates are given in Tables XXXVa (7 days after application), XXXVb (22 days after application), XXXVc (34 days after application), and XXXVd (41 days after application):
Fungicidal efficacy of the mixture of Azolopyrimidine A and different cereal fungicides the field against Septoria tritici on wheat 15 days after application The tank mix was obtained from an SC formulation containing 100 g Azolopyrimidine A per liter and commercially available formulations of metconazole, epoxiconazole or propiconazole, respectively.

Blumeria graminis = assay: Field test, Blumeria graminis on wheat; details: metconazole 45 g/ha alone, 15 days after application
Protocol: as §1, §11, §3, §10, §12
Fungicidal efficacy of the mixture of (S)-Azolopyrimidine C+cyproconazole in the field against Blumeria graminis on wheat 17 days after application The tank mix was obtained from a SC formulation containing 100 g (S)-Azolopyrimidine C per liter and an EC formulation containing 60 g cyproconazole per liter.
Fungicidal efficacy of the mixture of (S)-Azolopyrimidine C+azoxystrobin in the field against Blumeria graminis on wheat 17 days after application The tank mix was obtained from a SC formulation containing 100 g (S)-Azolopyrimidine C per liter and a SC formulation containing 250 g azoxystrobin per kg.
Fungicidal efficacy of the mixture of Azolopyrimidine A and different cereal fungicides in the field against Blumeria graminis on wheat 15 days after application The tank mix was obtained from an SC formulation containing 100 g Azolopyrimidine A per liter and commercially available formulations of metconazole, epoxiconazole or kresoxim methyl, respectively.

Puccinia recondita [4] = assay: Field test, Puccinia recondita on wheat; details: metconazole 45 g/ha alone, 50 days after application
Protocol: as §1, §11, §3, §10, §12
Fungicidal efficacy of the mixture of Azolopyrimidine A and different cereal fungicides in the field against Puccinia recondita on wheat 50 days after application The tank mix was obtained from an SC formulation containing 100 g Azolopyrimidine A per liter and commercially available formulations of metconazole, epoxiconazole, propiconazole or kresoxim methyl, respectively.

Botrytis cinerea = assay: Field test, Botrytis cinerea in vines; details: Example 33
Protocol: as §1, §11, §3, §10
The compounds are applied according to good agricultural practice in the form of an aqueous spray mix obtained from a concentrated formulation or the technical material at a rate of 400 l/ha. The disease control is evaluated according to the formula given for the greenhouse tests. […]

Structure (SMILES): CC1(C)CCC(Cc2ccc(Cl)cc2)C1(O)Cn1cncn1 (stereo not shown) [metconazole]
- Observed Efficacy (Rhynchosporium secalis): 87%
- Observed Efficacy (Septoria tritici [1]; dose rate 2 ppm): 0%
- Observed Efficacy (Septoria tritici [1]; dose rate 5 ppm): 0%
- Observed Efficacy (Septoria tritici [1]; dose rate 8 ppm): 0%
- Observed Efficacy (Septoria tritici [1]; dose rate 10 ppm): 0%
- Observed Efficacy (Septoria tritici [1]; dose rate 25 ppm): 0%
- Observed Efficacy (Pyrenophora teres; dose rate 10 ppm): 4%
- Observed Efficacy (Pyrenophora teres; dose rate 25 ppm): 9%
- Observed Efficacy (Pyrenophora teres; dose rate 40 ppm): 34%
- Observed Efficacy (Pyrenophora teres; dose rate 125 ppm): 68%
- Observed Efficacy (Pyrenophora teres; dose rate 200 ppm): 73%
- pest or weed control at 2 ppm (Puccinia recondita [2]; dose rate 2 ppm): 0%
- pest or weed control at 8 ppm (Puccinia recondita [2]; dose rate 8 ppm): 0%
- pest or weed control at 10 ppm (Puccinia recondita [2]; dose rate 10 ppm): 8%
- pest or weed control at 25 ppm (Puccinia recondita [2]; dose rate 25 ppm): 14%
- pest or weed control at 40 ppm (Puccinia recondita [2]; dose rate 40 ppm): 31%
- pest or weed control at 50 ppm (Puccinia recondita [2]; dose rate 50 ppm): 72%
- pest or weed control at 125 ppm (Puccinia recondita [2]; dose rate 125 ppm): 97%
- Observed Efficacy (Septoria tritici [3]; Example 34, 19 days after application, dose rate 15 g/ha): 9%
- Observed Efficacy (Septoria tritici [3]; Example 34, 19 days after application, dose rate 30 g/ha): 36%
- Observed Efficacy (Septoria tritici [3]; Example 34, 19 days after application, dose rate 45 g/ha): 24%
- Observed Efficacy (Septoria tritici [3]; Example 34, 25 days after application, dose rate 15 g/ha): 33%
- Observed Efficacy (Septoria tritici [3]; Example 34, 25 days after application, dose rate 60 g/ha): 48%
- Observed Efficacy (Septoria tritici [3]; metconazole 45 g/ha alone, 15 days after application, field, wheat): 77
- Observed Efficacy (Blumeria graminis): 54
- Observed Efficacy (Puccinia recondita [4]): 75

Structure (SMILES): Fc1cccc(Cl)c1-c1c(Cl)nc2ncnn2c1NCC(F)(F)F [Azolopyrimidine B, 5-chloro-6-(2-chloro-6-fluorophenyl)-7-(2,2,2-trifluoroethylamino)-[1,2,4]triazolo[1,5-a]pyrimidine]
- Observed Efficacy (Botrytis cinerea; dose rate 250 g/ha): 58%

Structure (SMILES): Cc1cc(C)nc(Nc2ccccc2)n1 [pyrimethanil]
- Observed Efficacy (Botrytis cinerea; dose rate 500 g/ha): 66%
